Results on three molecules are retold here after patent publication US8722849B2, “Polypeptides” (Novo Nordisk A/S, priority 2011, dated 2014).

As usually defined, the EC50 is the midpoint of the concentration-response curve. A word on the solubility: it is the concentration that dissolves in the medium under given conditions.

Data set [1] concerns the target T1, human amylin receptor (amylin 3(a) receptor: human calcitonin receptor + RAMP-3) (Homo sapiens, UniProt O60896+P30988).
T1 construct: expressed in transfected cells; host or cells: BHK570
T1 sequence (P30988 25-474): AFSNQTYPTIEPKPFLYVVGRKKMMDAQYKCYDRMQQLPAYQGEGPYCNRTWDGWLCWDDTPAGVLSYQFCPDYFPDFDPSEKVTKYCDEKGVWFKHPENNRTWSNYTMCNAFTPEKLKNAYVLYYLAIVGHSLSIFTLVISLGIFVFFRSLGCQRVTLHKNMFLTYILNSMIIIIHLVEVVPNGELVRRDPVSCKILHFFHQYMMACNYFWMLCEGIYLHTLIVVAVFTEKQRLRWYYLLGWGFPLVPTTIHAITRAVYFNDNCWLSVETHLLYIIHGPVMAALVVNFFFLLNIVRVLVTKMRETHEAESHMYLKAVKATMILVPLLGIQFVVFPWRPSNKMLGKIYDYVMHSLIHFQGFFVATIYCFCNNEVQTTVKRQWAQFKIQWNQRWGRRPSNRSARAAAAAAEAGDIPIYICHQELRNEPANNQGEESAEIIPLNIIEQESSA
T1 sequence (O60896 24-148 partner): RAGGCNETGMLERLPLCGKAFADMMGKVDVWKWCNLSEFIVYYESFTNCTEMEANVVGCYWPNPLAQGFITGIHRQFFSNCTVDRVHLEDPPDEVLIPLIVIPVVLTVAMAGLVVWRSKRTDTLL
As to the kind of experiment: Assay (II)a functional CRE-luciferase assay, human amylin receptor. The format is cell-based. The text has this:
(§1) 1. Luciferase Assay Outline
(§2) Activation of calcitonin and amylin (coexpression of calcitonin receptor and receptor activity modifying proteins (RAMP)) receptors lead to increased intracellular concentrations of cAMP. Consequently, transcription is activated by promoters containing multiple copies of the cAMP response element (CRE). It is thus possible to measure amylin activity by the use of a CRE luciferase reporter gene introduced into BHK cells also expressing calcitonin or amylin receptors.
(§3) A BHK570 cell line was stably transfected with the human calcitonin receptor and a CRE-responsive luciferase reporter gene. The cell line was further transfected with RAMP-3, using standard methods. This turns the calcitonin receptor into an amylin 3(a) receptor. Methotrexate, Neomycin, and Hygromycin are selection markers for luciferase, the calcitonin receptor, and RAMP-3, respectively.
(§4) To perform activity assays, BHK calcitonin (a) receptor- or amylin 3(a)-receptor/CRE-luc cells were seeded in white 96 well culture plates at a density of about 20.000 cells/well. […] Further, 50 μl/well of standard or sample in assay buffer were added. After 3 hours incubation at 37° C. and 5% CO2, the assay medium with standard or sample were removed and replaced by 100 μl/well PBS. Further, 100 μl/well LucLite™ was added. The plates were sealed and incubated at room temperature for 30 minutes. Finally, luminescence was measured on a TopCounter (Packard) in SPC (single photon counting) mode.

Data set [2] has as its target T2, human calcitonin receptor (Homo sapiens, UniProt P30988).
T2 construct: expressed in transfected cells; host or cells: BHK570
T2 sequence (P30988 25-474): T1 sequence (P30988 25-474)
As to the kind of experiment: Assay (II)a functional CRE-luciferase assay, human calcitonin receptor. To be noted: Table 7; human calcitonin (CTa) receptor. The format is cell-based.
Source text: as §1, §2, §3, §4

A short description of data set [3]: Assay (IV) determination of solubility. Format: physicochemical. In outline: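 Polypeptide in water (~500 nmol/ml) mixed 1:1 with 100 mM glycylglycine (pH 3.0–5.0) or bistrispropane (pH 6.0–8.0) buffers. Held 18 hours at room temperature, then centrifuged. Polypeptide remaining in solution quantified by HPLC.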
Setting [4] is: Table 2, BHK amylin 3(a)-receptor/CRE-luc cells.
Setting [5] is: bistrispropane buffer, pH 6, pH 6.0, read-out: Solubility pH 6.0.
The mark [6] stands for this setting: bistrispropane buffer, pH 6.5, pH 6.5, read-out: Solubility pH 6.5.
Setting [7] is: bistrispropane buffer, pH 7, pH 7.0, read-out: Solubility pH 7.0.
Where [8] appears, read: bistrispropane buffer, pH 7.5, pH 7.5, read-out: Solubility pH 7.5.
Where [9] appears, read: bistrispropane buffer, pH 8, pH 8.0, read-out: Solubility pH 8.0.
The mark [10] stands for this setting: glycylglycine buffer, pH 3, pH 3.0, read-out: Solubility pH 3.0.
Where [11] appears, read: glycylglycine buffer, pH 4, pH 4.0, 18 hours at room temperature, Table 2, read-out: Solubility pH 4.0.
Setting [12] is: glycylglycine buffer, pH 4, pH 4.0, read-out: Solubility pH 4.0.
The mark [13] stands for this setting: glycylglycine buffer, pH 5, pH 5.0, read-out: Solubility pH 5.0.

≈ marks a conversion by molar mass, not a printed value. Read-outs that look alike come from different tables or passages of the source. Starred links: 1 amine or outer side, 2 acyl side, 3 side chain; linkers in the order of their positions; H or OH if unused. Positions of bridges follow the written chain, without caps; N, C: chain ends. Residues, ends and D or L forms follow the SMILES beside them. *: point of attachment. C20 diacid = O=C(O)CCCCCCCCCCCCCCCCCCC(=O)*; γGlu = O=C(O)[C@H](CCC(=O)[*:2])N[*:1]

On to `CC[C@H](C)[C@H](NC(=O)[C@@H]1CCCN1C(=O)CNC(=O)[C@H](Cc1ccccc1)NC(=O)[C@H](CCC(N)=O)NC(=O)[C@H](CCC(N)=O)NC(=O)[C@H](CO)NC(=O)[C@H](CO)NC(=O)[C@H](CCCNC(=N)N)NC(=O)[C@H](Cc1c[nH]cn1)NC(=O)[C@H](CC(C)C)NC(=O)[C@H](Cc1ccccc1)NC(=O)[C@H](CCC(=O)O)NC(=O)[C@H](C)NC(=O)[C@H](CC(C)C)NC(=O)[C@H](CCCNC(=N)N)NC(=O)[C@H](CCC(N)=O)NC(=O)[C@@H](NC(=O)[C@H](C)NC(=O)[C@@H]1CSSC[C@H](NC(=O)CC[C@H](NC(=O)CCCCCCCCCCCCCCCCCCC(=O)O)C(=O)O)C(=O)NCC(=O)N[C@@H]([C@@H](C)O)C(=O)N[C@@H](C)C(=O)N[C@@H]([C@@H](C)O)C(=O)N1)[C@@H](C)O)C(=O)N[C@@H](CC(C)C)C(=O)N1CCC[C@H]1C(=O)N1CCC[C@H]1C(=O)N[C@H](C(=O)N[C@@H](CCC(=O)O)C(=O)N[C@H](C(=O)NCC(=O)N[C@@H](CO)C(=O)NCC(=O)N[C@H](C(=O)N[C@@H](Cc1ccc(O)cc1)C(N)=O)[C@@H](C)O)C(C)C)[C@@H](C)O` [Example 4, N-alpha-[(S)-4-Carboxy-4-(19-carboxynonadecanoylamino)butyryl]-[des1,Gly3,Glu14,His17,Arg18,Gln21,Gln22,Glu31,Gly35]-pramlintide] ({C20 diacid-γGlu}-CGTATCATQRLAEFLHRSSQQFGPILPPTEVGSGTY-NH2; disulfide 1-6 (inferred)), for which the EC50 in data set [1] (setting [4]) was found to be 253 pM; in data set [2], 284 pM. The solubility at 18 h was 42 µM (≈ 180 µg/mL) in data set [3] (setting [5]); 82 µM (≈ 351 µg/mL) in data set [3] (setting [6]); 146 µM (≈ 624 µg/mL) in data set [3] (bistrispropane buffer, pH 7, pH 7.0, 18 hours at room temperature, Table 3, read-out: Solubility pH 7.0); 146 µM (≈ 624 µg/mL) in data set [3] (setting [7]); 183 µM (≈ 782 µg/mL) in data set [3] (setting [8]); 190 µM (≈ 812 µg/mL) in data set [3] (setting [9]). The solubility at 18 h in data set [3] (setting [10]) was over 200 µM; in data set [3] (setting [11]), 120 µM (≈ 513 µg/mL); in data set [3] (setting [12]) it was 120 µM (≈ 513 µg/mL).
For the molecule `CC(C)C[C@H](NC(=O)[C@H](CCCNC(=N)N)NC(=O)[C@H](CCC(N)=O)NC(=O)[C@@H](NC(=O)[C@H](C)NC(=O)[C@@H]1CSSC[C@H](NC(=O)[C@H](Cc2cnc[nH]2)NC(=O)CC[C@H](NC(=O)CCCCCCCCCCCCCCCCCCC(=O)O)C(=O)O)C(=O)N[C@@H](CC(N)=O)C(=O)N[C@@H]([C@@H](C)O)C(=O)N[C@@H](C)C(=O)N[C@@H]([C@@H](C)O)C(=O)N1)[C@@H](C)O)C(=O)N[C@@H](C)C(=O)N[C@@H](CCC(=O)O)C(=O)N[C@@H](Cc1ccccc1)C(=O)N[C@@H](CC(C)C)C(=O)N[C@@H](Cc1cnc[nH]1)C(=O)N[C@@H](CCCNC(=N)N)C(=O)N[C@@H](CO)C(=O)N[C@@H](CO)C(=O)N[C@@H](CC(N)=O)C(=O)N[C@@H](CC(N)=O)C(=O)N[C@@H](Cc1ccccc1)C(=O)NCC(=O)N[C@@H](C)C(=O)N1CCC[C@H]1C(=O)N[C@@H](CC(C)C)C(=O)N[C@@H](CO)C(=O)N[C@@H](CO)C(=O)N[C@H](C(=O)N[C@@H](CC(N)=O)C(=O)N[C@H](C(=O)NCC(=O)N[C@@H](CO)C(=O)N[C@@H](CC(N)=O)C(=O)N[C@H](C(=O)N[C@@H](Cc1ccc(O)cc1)C(N)=O)[C@@H](C)O)C(C)C)[C@@H](C)O` [Example 6, N-alpha-[(S)-4-Carboxy-4-(19-carboxynonadecanoylamino)butyryl]-[His1,Glu14,His17,Arg18,Ala25,Pro26,Ser28,Ser29]-pramlintide] ({C20 diacid-γGlu}-HCNTATCATQRLAEFLHRSSNNFGAPLSSTNVGSNTY-NH2; disulfide 2-7), the figures for the concentration giving a half-maximal response (EC50) in data set [1] (setting [4]) and in data set [2] were 115 pM and 240 pM, respectively. The solubility at 18 h was 12 µM (≈ 53.1 µg/mL) in data set [3] (setting [5]); 18 µM (≈ 79.6 µg/mL) in data set [3] (setting [8]); 48 µM (≈ 212 µg/mL) in data set [3] (setting [9]); over 200 µM in data set [3] (setting [10]); 163 µM (≈ 721 µg/mL) in data set [3] (setting [11]); 163 µM (≈ 721 µg/mL) in data set [3] (setting [12]). Also, the solubility at 18 h was determined as 168 µM (≈ 743 µg/mL) in data set [3] (setting [13]); 4 µM (≈ 17.7 µg/mL) in data set [3] (pH 6.5, read-out: Solubility pH 6.5); 7 µM (≈ 31 µg/mL) in data set [3] (pH 7.0, read-out: Solubility pH 7.0).
As to `CC(C)C[C@H](NC(=O)[C@H](CCCNC(=N)N)NC(=O)[C@H](CCC(N)=O)NC(=O)[C@@H](NC(=O)[C@H](C)NC(=O)[C@@H]1CSSC[C@H](NC(=O)[C@H](Cc2c[nH]cn2)NC(=O)CC[C@H](NC(=O)CCCCCCCCCCCCCCCCCCC(=O)O)C(=O)O)C(=O)N[C@@H](CC(N)=O)C(=O)N[C@@H]([C@@H](C)O)C(=O)N[C@@H](C)C(=O)N[C@@H]([C@@H](C)O)C(=O)N1)[C@@H](C)O)C(=O)N[C@@H](C)C(=O)N[C@@H](CCC(=O)O)C(=O)N[C@@H](Cc1ccccc1)C(=O)N[C@@H](CC(C)C)C(=O)N[C@@H](Cc1c[nH]cn1)C(=O)N[C@@H](CCCNC(=N)N)C(=O)N[C@@H](CO)C(=O)N[C@@H](CO)C(=O)N[C@@H](CC(N)=O)C(=O)N[C@@H](CCC(=O)O)C(=O)N[C@@H](Cc1ccccc1)C(=O)NCC(=O)N[C@@H](C)C(=O)N[C@@H](CCCNC(=N)N)C(=O)N[C@@H](CC(C)C)C(=O)N[C@@H](CO)C(=O)N[C@@H](CO)C(=O)N[C@H](C(=O)N[C@@H](CC(N)=O)C(=O)N[C@H](C(=O)NCC(=O)N[C@@H](CO)C(=O)N[C@@H](CC(N)=O)C(=O)N[C@H](C(=O)N[C@@H](Cc1ccc(O)cc1)C(N)=O)[C@@H](C)O)C(C)C)[C@@H](C)O` [Example 8, N-alpha-[(S)-4-Carboxy-4-(19-carboxynonadecanoylamino)butyryl]-[His1,Glu14,His17,Arg18,Glu22,Ala25,Arg26,Ser28,Ser29]-pramlintide] ({C20 diacid-γGlu}-HCNTATCATQRLAEFLHRSSNEFGARLSSTNVGSNTY-NH2; disulfide 2-7 (inferred)), the EC50 in data set [1] (Table 6, human amylin receptor) stood at 126 pM; in data set [2] it was 278 pM. Further, the solubility at 18 h in data set [3] (setting [5]) came out at 1 µM (≈ 4.5 µg/mL); in data set [3] (setting [6]), 1 µM (≈ 4.5 µg/mL); in data set [3] (setting [7]), 1 µM (≈ 4.5 µg/mL); in data set [3] (setting [8]), 1 µM (≈ 4.5 µg/mL); in data set [3] (setting [9]), 3 µM (≈ 13.5 µg/mL); in data set [3] (setting [10]), 178 µM (≈ 800 µg/mL). For the same molecule, the solubility at 18 h in data set [3] (setting [12]) was 93 µM (≈ 418 µg/mL); in data set [3] (setting [13]), 2 µM (≈ 8.99 µg/mL).
